pIC50, pKi: −log10 of the molar value.

Data set [1] deals with hCA I (Homo sapiens, UniProt P00915). As to the kind of experiment: Carbonic anhydrase inhibition, colorimetric method (BioVision CA Inhibitor Screening Kit).
The target in data set [2] is hCA II (Homo sapiens, UniProt P00918). The data set is described as above.
In data set [3] the target is hCA IX (Homo sapiens, UniProt Q16790). The description is as above. To be noted: for Selectivity index I/IX: hCA IX over hCA I; for Selectivity index II/IX: hCA IX over hCA II.
Data set [4] deals with hCA XII (Homo sapiens, UniProt O43570). Described as above. Conditions: for Selectivity index I/XII: hCA XII over hCA I; for Selectivity index II/XII: hCA XII over hCA II.
Sequence of hCA XII (O43570 25-354): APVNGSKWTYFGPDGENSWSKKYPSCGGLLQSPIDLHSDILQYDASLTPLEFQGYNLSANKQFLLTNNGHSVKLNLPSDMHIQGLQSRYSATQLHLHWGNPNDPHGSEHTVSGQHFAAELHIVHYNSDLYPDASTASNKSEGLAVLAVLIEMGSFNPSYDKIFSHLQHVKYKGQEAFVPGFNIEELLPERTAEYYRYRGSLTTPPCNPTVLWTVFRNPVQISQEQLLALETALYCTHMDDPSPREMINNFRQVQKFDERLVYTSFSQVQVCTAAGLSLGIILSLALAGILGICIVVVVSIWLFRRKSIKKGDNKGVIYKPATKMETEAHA

Sequence of hCA I (P00915 whole entry): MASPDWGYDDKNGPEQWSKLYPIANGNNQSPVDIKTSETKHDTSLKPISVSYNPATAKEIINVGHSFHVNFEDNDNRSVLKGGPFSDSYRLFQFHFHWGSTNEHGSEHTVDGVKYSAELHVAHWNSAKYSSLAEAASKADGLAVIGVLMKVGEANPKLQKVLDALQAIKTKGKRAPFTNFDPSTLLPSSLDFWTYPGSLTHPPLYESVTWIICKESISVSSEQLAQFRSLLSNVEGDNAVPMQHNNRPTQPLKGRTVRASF

Turning to `COc1ccc2[nH]c(=O)c(/C=N/c3c(N)n(C)c(=O)[nH]c3=O)cc2c1` [Compound 10k, (E)-6-Amino-5-(((6-methoxy-2-oxo-1,2-dihydroquinolin-3-yl)methylene)amino)-1-methyl pyrimidine-2,4(1H,3H)-dione], the melting point (commonly the temperature of the solid-liquid transition) lay within 293 to 295 °C. For the same compound, in data set [1], the negative-log IC50 (pIC50) (usually the IC50 on a negative log10 scale, so that one unit is a factor of ten) was 5.67 and the negative-log Ki (pKi) (usually the negative decadic logarithm of the Ki, by convention in mol/L) was 5.93. For the same compound, in data set [2], the pIC50 was 5.18 and the pKi is 5.44. In data set [3], the pIC50 was 5.89, the pKi is 6.15, the “Selectivity index I/IX” value was 1.66 and the “Selectivity index II/IX” value is 5.14. Also, in data set [4], the negative logarithm of the IC50 (pIC50) was 6.27, the pKi is 6.52, the “Selectivity index I/XII” value was found to be 3.96 and the “Selectivity index II/XII” value worked out at 12.26.

`COc1ccc2[nH]c(=O)c(/C=N/c3c(N)n(Cc4ccccc4)c(=O)[nH]c3=O)cc2c1` [Compound 10i, (E)-6-Amino-1-benzyl-5-(((6-methoxy-2-oxo-1,2-dihydroquinolin-3-yl)methylene)amino) pyrimidine-2,4(1H,3H)-dione] displayed a melting point of 291 to 293 °C. For the same compound, in data set [1], the pIC50 was 5.68 and the negative logarithm of the Ki (pKi) was 5.93. Also, in data set [2], the pIC50 is 5.97 and the pKi was 6.23. For the same compound, in data set [3], the negative logarithm of the IC50 (pIC50) is 6.04, the pKi is 6.29, the “Selectivity index I/IX” value came out at 2.31 and the “Selectivity index II/IX” value was found to be 1.17. Also, in data set [4], the negative logarithm of the IC50 (pIC50) is 6.64, the pKi is 6.89, the “Selectivity index I/XII” value was found to be 9.07 and the “Selectivity index II/XII” value amounted to 4.60.

`CCn1c(N)c(/N=C/c2cc3ccccc3[nH]c2=O)c(=O)[nH]c1=O` [Compound 10c, (E)-6-Amino-1-ethyl-5-(((2-oxo-1,2-dihydroquinolin-3-yl)methylene)amino)pyrimidine-2,4(1H,3H)-dione] returned a melting point of 290 to 292 °C. In data set [1], the pIC50 is 5.75 and the pKi was 6.01. In data set [2], this compound showed a pIC50 of 6.18 and a pKi of 6.43. In data set [3], the pIC50 is 6.40, the pKi is 6.66, the “Selectivity index I/IX” value is 4.37 and the “Selectivity index II/IX” value amounted to 1.65. In data set [4], the negative-log IC50 (pIC50) was 6.31, the pKi is 6.57, the “Selectivity index I/XII” value was determined as 3.62 and the “Selectivity index II/XII” value is recorded as 1.37.

`CCn1c(N)c(/N=C/c2cc3cc(OC)ccc3[nH]c2=O)c(=O)[nH]c1=O` [Compound 10j, (E)-6-Amino-1-ethyl-5-(((6-methoxy-2-oxo-1,2-dihydroquinolin-3-yl)methylene)amino)pyrimidine-2,4(1H,3H)-dione] yielded a melting point of 287 to 289 °C. In data set [1], this compound had a pIC50 of 6.05 and a pKi of 6.31. Besides, in data set [2], the pIC50 was 5.59 and the pKi was 5.84. In data set [3], the negative-log IC50 (pIC50) is 6.06, the negative-log Ki (pKi) was 6.32, the “Selectivity index I/IX” value is listed as 1.02 and the “Selectivity index II/IX” value was 2.98. Also, in data set [4], the negative-log IC50 (pIC50) was 6.21, the negative logarithm of the Ki (pKi) was 6.47, the “Selectivity index I/XII” value is on record as 1.43 and the “Selectivity index II/XII” value is 4.18.

`COc1ccc2[nH]c(=O)c(/C=N/c3c(N)[nH]c(=O)[nH]c3=O)cc2c1` [Compound 10h, (E)-6-Amino-5-(((6-methoxy-2-oxo-1,2-dihydroquinolin-3-yl)methylene)amino) pyrimidine-2,4(1H,3H)-dione] came in with a melting point of 275 to 277 °C. In data set [1], the negative logarithm of the IC50 (pIC50) is 5.49 and the pKi was 5.75. In data set [2], this compound had a pIC50 of 5.35 and a negative logarithm of the Ki (pKi) of 5.60. Moreover, in data set [3], the pIC50 was 6.22, the negative logarithm of the Ki (pKi) was 6.48, the “Selectivity index I/IX” value turned out to be 5.39 and the “Selectivity index II/IX” value came to 7.52. Further, in data set [4], the negative logarithm of the IC50 (pIC50) is 6.40, the pKi is 6.66, the “Selectivity index I/XII” value was 8.00 and the “Selectivity index II/XII” value was determined as 11.16.

For the compound `Nc1c(/N=C/c2cc3ccccc3[nH]c2=O)c(=O)[nH]c(=O)n1Cc1ccccc1` [Compound 10b, (E)-6-Amino-1-benzyl-5-(((2-oxo-1,2-dihydroquinolin-3-yl)methylene)amino) pyrimidine-2,4(1H,3H)-dione], the melting point fell in the range of 280 to 282 °C. Also, in data set [1], the pIC50 was 6.00 and the negative-log Ki (pKi) was 6.25. Further, in data set [2], the pIC50 was 5.94 and the pKi is 6.20. Moreover, in data set [3], the pIC50 is 6.20, the pKi was 6.46, the “Selectivity index I/IX” value is on record as 1.60 and the “Selectivity index II/IX” value is on record as 1.81. For the same compound, in data set [4], the pIC50 is 6.46, the negative-log Ki (pKi) was 6.72, the “Selectivity index I/XII” value was 2.88 and the “Selectivity index II/XII” value is 3.24.

`CCn1c(N)c(/N=C/c2cc3cccc(C)c3[nH]c2=O)c(=O)[nH]c1=O` [Compound 10f, (E)-6-Amino-1-ethyl-5-(((8-methyl-2-oxo-1,2-dihydroquinolin-3-yl)methylene)amino)pyrimidine-2,4(1H,3H)-dione] yielded a melting point of 278 to 280 °C. In data set [1], this compound gave a pIC50 of 6.48 and a pKi of 6.74. In data set [2], this compound had a pIC50 of 6.10 and a negative logarithm of the Ki (pKi) of 6.36. In data set [3], the negative-log IC50 (pIC50) was 6.57, the negative-log Ki (pKi) is 6.85, the “Selectivity index I/IX” value stood at 1.23 and the “Selectivity index II/IX” value was 2.99. In data set [4], the negative-log IC50 (pIC50) was 6.77, the pKi was 7.05, the “Selectivity index I/XII” value worked out at 1.95 and the “Selectivity index II/XII” value amounted to 4.72.

Compound `Cn1c(N)c(/N=C/c2cc3ccccc3[nH]c2=O)c(=O)[nH]c1=S` [Compound 10e, (E)-3-(((6-Amino-1-methyl-4-Oxo-2-thioxo-1,2,3,4-tetrahydropyrimidin-5-yl)imino)methyl) quinolin-2(1H)-one] gave a melting point of 284 to 286 °C. In data set [1], this compound gave a pIC50 of 5.90 and a pKi of 6.16. Further, in data set [2], the pIC50 is 5.92 and the pKi is 6.17. In addition, in data set [3], the negative logarithm of the IC50 (pIC50) was 5.86, the pKi is 6.12, the “Selectivity index I/IX” value is 0.91 and the “Selectivity index II/IX” value worked out at 0.88. In data set [4], the pIC50 was 6.23, the pKi was 6.48, the “Selectivity index I/XII” value worked out at 2.12 and the “Selectivity index II/XII” value came to 2.06.

Consider `Nc1[nH]c(=O)[nH]c(=O)c1/N=C/c1cc2ccccc2[nH]c1=O` [Compound 10a, (E)-6-Amino-5-(((2-oxo-1,2-dihydroquinolin-3-yl)methylene)amino)pyrimidine-2,4(1H,3H)-dione], for which the melting point fell in the range of 270 to 272 °C. Besides, in data set [1], the pIC50 is 6.01 and the negative logarithm of the Ki (pKi) was 6.28. In data set [2], this compound showed a negative logarithm of the IC50 (pIC50) of 6.28 and a negative logarithm of the Ki (pKi) of 6.54. Further, in data set [3], the pIC50 was 6.60, the pKi is 6.85, the “Selectivity index I/IX” value is 3.88 and the “Selectivity index II/IX” value was determined as 2.09. Besides, in data set [4], the pIC50 was 6.49, the pKi is 6.77, the “Selectivity index I/XII” value is on record as 3.05 and the “Selectivity index II/XII” value came out at 1.65.

These data come from publication PMC9146896, “Uracil as a Zn-Binding Bioisostere of the Allergic Benzenesulfonamide in the Design of Quinoline–Uracil Hybrids as Anticancer Carbonic Anhydrase Inhibitors” (Pharmaceuticals, 2022).
